Measurements reported in ChEMBL document CHEMBL1134967, “Identification of novel inhibitors of fibroblast growth factor (FGF-2) binding to heparin and endothelial cell survival from a structurally diverse carbohybrid library” (Bioorg Med Chem Lett, 2002).
Several values for one entry are separate records, joined by “and”; a condition that tells them apart may be missing. Identical values can stand only once.

Experiments:
[1] = target: T1, Fibroblast growth factor 2 (Homo sapiens, UniProt P09038); assay: Inhibition of Fibroblast growth factor 2 binding to heparin-albumin in ELISA
T1 sequence (P09038 143-288 limits assumed): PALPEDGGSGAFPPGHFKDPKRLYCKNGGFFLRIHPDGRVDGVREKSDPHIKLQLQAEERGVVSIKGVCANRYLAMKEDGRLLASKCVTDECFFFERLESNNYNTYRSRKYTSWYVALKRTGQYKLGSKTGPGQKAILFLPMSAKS

[2] = target: T1, Fibroblast growth factor 2; assay: 25% inhibition of FGF-2 binding to heparin-albumin by ELISA
[3] = target: T1, Fibroblast growth factor 2; assay: 23% inhibition of FGF-2 binding to heparin-albumin by ELISA
[4] = target: T1, Fibroblast growth factor 2; assay: 24% inhibition of FGF-2 binding to heparin-albumin by ELISA

SMILES | Imax [1] [%] | IC50 [2] | IC50 [3] [nM] | IC50 [4] [nM]
O=C(O)[C@@H]1O[C@@H](OCCN2C(=O)CCC2=O)[C@@H](O)[C@@H](O)[C@@H]1O | 25 | < 313 nM and 340 nM | – | –
COc1cc(C(=O)NC2OC(C(=O)O)C(O)C(O)C2O)cc(OC)c1OC (stereo not given) | 23 | – | 150 | –
O=C(COc1ccc(Cl)cc1Cl)NC1OC(C(=O)O)C(O)C(O)C1O (stereo not given) | 24 | – | – | 25.2
O=C(NC1OC(C(=O)O)C(O)C(O)C1O)c1ccc(F)c(F)c1 (stereo not given) | 39 | 33000 nM | – | –

More lines, now with the values ahead:

Imax [1] [%] | IC50 [2] | IC50 [3] [nM] | IC50 [4] [nM] | SMILES
45 | – | – | – | O=C(NC1OC(C(=O)O)C(O)C(O)C1O)c1ccncc1 (stereo not given)
40 | – | – | – | O=C(NC1OC(C(=O)O)C(O)C(O)C1O)c1cccs1 (stereo not given)
